pKi: −log10 of the molar value.
These molecules were tested against GST-tagged-Wee1 kinase (Homo sapiens, UniProt P30291) (assay: Wee1 time-resolved fluorescence equilibrium binding assay (displacement of Oregon Green-labeled ATP-competitive kinase probe)).
Protocol: Wee1 kinase was assayed using a time-resolved fluorescence equilibrium binding assay monitoring displacement of a rapidly reversible Oregon Green-labeled ATP-competitive kinase probe (N-(2-(2-(2-(4-(4-(5-chloro-4-(2-(1-hydroxycyclobutyl)thiazol-5-yl)-1H-pyrrolo[2,3-b]pyridin-2-yl)phenyl)piperazin-1-yl)ethoxy)ethoxy)ethyl)-2′,7′-difluoro-3′,6′-dihydroxy-3-oxo-3H-spiro[isobenzofuran-1,9′-xanthene]-5-carboxamide) by competitive Wee1 inhibitors.

GST-tagged-Wee1 kinase, sequence (P30291 whole entry): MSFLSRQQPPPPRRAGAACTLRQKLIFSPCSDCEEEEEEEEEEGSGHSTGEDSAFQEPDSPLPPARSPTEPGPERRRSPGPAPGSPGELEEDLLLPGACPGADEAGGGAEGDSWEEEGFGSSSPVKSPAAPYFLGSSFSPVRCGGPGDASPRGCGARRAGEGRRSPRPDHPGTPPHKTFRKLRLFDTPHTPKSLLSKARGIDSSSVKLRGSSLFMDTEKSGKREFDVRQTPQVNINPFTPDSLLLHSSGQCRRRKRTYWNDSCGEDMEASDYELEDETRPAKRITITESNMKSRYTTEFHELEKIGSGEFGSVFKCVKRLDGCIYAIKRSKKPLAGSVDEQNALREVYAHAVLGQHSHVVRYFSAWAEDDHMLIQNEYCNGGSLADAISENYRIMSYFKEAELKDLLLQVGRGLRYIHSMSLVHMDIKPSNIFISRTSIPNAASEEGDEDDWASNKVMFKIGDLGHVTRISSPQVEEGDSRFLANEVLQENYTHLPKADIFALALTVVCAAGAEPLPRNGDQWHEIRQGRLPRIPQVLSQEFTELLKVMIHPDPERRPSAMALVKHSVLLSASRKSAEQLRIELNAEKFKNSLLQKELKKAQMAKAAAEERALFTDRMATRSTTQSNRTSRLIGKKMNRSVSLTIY

Row | pKi | Structure (SMILES)
1 | 8.85 | CN1CCN(c2ccc(Nc3ncc4c(=O)n(-c5c(Cl)cccc5Cl)nc(-c5cncs5)c4n3)cc2)CC1 [Example 307, 6-(2,6-dichlorophenyl)-2-{[4-(4-methylpiperazin-1-yl)phenyl]amino}-8-(1,3-thiazol-5-yl)pyrimido[4,5-d]pyridazin-5(6H)-one]
2 | 9.00 | Cc1nn(-c2c(F)cccc2Cl)c(=O)c2cnc(Nc3ccc4c(c3)CNCC43CC3)nc12 [Example 308]
3 | 6.17 | CN1CCN(c2ccc(Nc3ncc4c(=O)n(-c5c(F)cccc5Cl)nc(-c5ccccn5)c4n3)cc2)CC1 [Example 309, 6-(2-chloro-6-fluorophenyl)-2-{[4-(4-methylpiperazin-1-yl)phenyl]amino}-8-(pyridin-2-yl)pyrimido[4,5-d]pyridazin-5(6H)-one]
4 | 8.44 | CN1CCN(c2ccc(Nc3ncc4c(=O)n(-c5cnccc5O)nc(-c5ccccn5)c4n3)cc2)CC1 [Example 310, 6-(4-hydroxypyridin-3-yl)-2-{[4-(4-methylpiperazin-1-yl)phenyl]amino}-8-(pyridin-2-yl)pyrimido[4,5-d]pyridazin-5(6H)-one]
5 | 9.00 | Cc1nn(-c2c(F)cccc2Cl)c(=O)c2cnc(Nc3ccc4c(c3)CN(C)CC4(C)C)nc12 [Example 311, 6-(2-chloro-6-fluorophenyl)-8-methyl-2-[(2,4,4-trimethyl-1,2,3,4-tetrahydroisoquinolin-7-yl)amino]pyrimido[4,5-d]pyridazin-5(6H)-one]
6 | 8.72 | Cc1nn(-c2c(F)cccc2Cl)c(=O)c2cnc(Nc3ccc(N4CCN(C)CC4)cc3)nc12 [Example 312, 6-(2-chloro-6-fluorophenyl)-8-methyl-2-{[4-(4-methylpiperazin-1-yl)phenyl]amino}pyrimido[4,5-d]pyridazin-5(6H)-one]
7 | 8.59 | Cc1nn(-c2c(F)cccc2Cl)c(=O)c2cnc(Nc3ccc4c(c3)CN(C)CC43CC3)nc12 [Example 313, 6-(2-chloro-6-fluorophenyl)-8-methyl-2-[(2′-methyl-2′,3′-dihydro-1′H-spiro[cyclopropane-1,4′-isoquinolin]-7′-yl)amino]pyrimido[4,5-d]pyridazin-5(6H)-one]
8 | 8.92 | Cc1nn(-c2c(Cl)cccc2Cl)c(=O)c2cnc(Nc3ccc(N4CCN(C)CC4)cc3)nc12 [Example 314, 6-(2,6-dichlorophenyl)-8-methyl-2-{[4-(4-methylpiperazin-1-yl)phenyl]amino}pyrimido[4,5-d]pyridazin-5(6H)-one]
9 | 8.72 | O=c1c2cnc(Nc3ccc4c(c3)CNCC43CC3)nc2c(-c2cncs2)nn1-c1c(Cl)cccc1Cl [Example 315, 6-(2,6-dichlorophenyl)-2-(2′,3′-dihydro-1′H-spiro[cyclopropane-1,4′-isoquinolin]-7′-ylamino)-8-(1,3-thiazol-5-yl)pyrimido[4,5-d]pyridazin-5(6H)-one]
10 | 8.74 | CN1CCN(c2ccc(Nc3ncc4c(=O)n(-c5c(Cl)cccc5Cl)nc(-c5nccs5)c4n3)cc2)CC1 [Example 316, 6-(2,6-dichlorophenyl)-2-{[4-(4-methylpiperazin-1-yl)phenyl]amino}-8-(1,3-thiazol-2-yl)pyrimido[4,5-d]pyridazin-5(6H)-one]
11 | 9.42 | CN1Cc2cc(Nc3ncc4c(=O)n(-c5c(Cl)cccc5Cl)nc(-c5cncs5)c4n3)ccc2C2(CC2)C1 [Example 317, 6-(2,6-dichlorophenyl)-2-[(2′-methyl-2′,3′-dihydro-1′H-spiro[cyclopropane-1,4′-isoquinolin]-7′-yl)amino]-8-(1,3-thiazol-5-yl)pyrimido[4,5-d]pyridazin-5(6H)-one]
12 | 9.59 | O=c1c2cnc(Nc3ccc4c(c3)CNCC4)nc2c(-c2cncs2)nn1-c1c(Cl)cccc1Cl [Example 318, 6-(2,6-dichlorophenyl)-2-(1,2,3,4-tetrahydroisoquinolin-7-ylamino)-8-(1,3-thiazol-5-yl)pyrimido[4,5-d]pyridazin-5(6H)-one]
13 | 9.41 | O=c1c2cnc(Nc3ccc(N4CCNCC4)cc3)nc2c(-c2cncs2)nn1-c1c(Cl)cccc1Cl [Example 319, 6-(2,6-dichlorophenyl)-2-{[4-(piperazin-1-yl)phenyl]amino}-8-(1,3-thiazol-5-yl)pyrimido[4,5-d]pyridazin-5(6H)-one]
14 | 9.31 | CN1Cc2cc(Nc3ncc4c(=O)n(-c5c(Cl)cccc5Cl)nc(-c5nccs5)c4n3)ccc2C2(CC2)C1 [Example 320, 6-(2,6-dichlorophenyl)-2-[(2′-methyl-2′,3′-dihydro-1′H-spiro[cyclopropane-1,4′-isoquinolin]-7′-yl)amino]-8-(1,3-thiazol-2-yl)pyrimido[4,5-d]pyridazin-5(6H)-one]
15 | 9.10 | O=c1c2cnc(Nc3ccc(N4CCN(C5COC5)CC4)cc3)nc2c(-c2ccncc2)nn1-c1c(Cl)cccc1Cl [Example 321, 6-(2,6-dichlorophenyl)-2-({4-[4-(oxetan-3-yl)piperazin-1-yl]phenyl}amino)-8-(pyridin-4-yl)pyrimido[4,5-d]pyridazin-5(6H)-one]
16 | < 5.50 | CN1CCC(n2nc(-c3ccccn3)c3nc(Nc4ccc(N5CCNCC5)cc4)ncc3c2=O)CC1 [Example 322, 6-(1-methylpiperidin-4-yl)-2-{[4-(piperazin-1-yl)phenyl]amino}-8-(pyridin-2-yl)pyrimido[4,5-d]pyridazin-5(6H)-one]
17 | 9.31 | CN1CCN(c2ccc(Nc3ncc4c(=O)n(-c5c(Cl)cccc5Cl)ncc4n3)cc2)CC1 [Example 323, 6-(2,6-dichlorophenyl)-2-{[4-(4-methylpiperazin-1-yl)phenyl]amino}pyrimido[4,5-d]pyridazin-5(6H)-one]
18 | 9.70 | CN1Cc2cc(Nc3ncc4c(=O)n(-c5c(Cl)cccc5Cl)ncc4n3)ccc2C2(CC2)C1 [Example 324, 6-(2,6-dichlorophenyl)-2-[(2′-methyl-2′,3′-dihydro-1′H-spiro[cyclopropane-1,4′-isoquinolin]-7′-yl)amino]pyrimido[4,5-d]pyridazin-5(6H)-one]
19 | 9.15 | O=c1c2cnc(Nc3ccc(N4CCNCC4)cc3)nc2cnn1-c1c(Cl)cccc1Cl [Example 325, 6-(2,6-dichlorophenyl)-2-{[4-(piperazin-1-yl)phenyl]amino}pyrimido[4,5-d]pyridazin-5(6H)-one]
20 | 9.28 | O=c1c2cnc(Nc3ccc4c(c3)CNCC43CC3)nc2cnn1-c1c(Cl)cccc1Cl [Example 326, 6-(2,6-dichlorophenyl)-2-(2′,3′-dihydro-1′H-spiro[cyclopropane-1,4′-isoquinolin]-7′-ylamino)pyrimido[4,5-d]pyridazin-5(6H)-one]
21 | 9.03 | O=c1c2cnc(Nc3ccc4c(c3)CNCC4)nc2cnn1-c1c(Cl)cccc1Cl [Example 327, 6-(2,6-dichlorophenyl)-2-(1,2,3,4-tetrahydroisoquinolin-7-ylamino)pyrimido[4,5-d]pyridazin-5(6H)-one]
22 | 6.66 | CN1CCC(n2nc(-c3ccccn3)c3nc(Nc4ccc5c(c4)CN(C)CC5(C)C)ncc3c2=O)CC1 [Example 328, 6-(1-methylpiperidin-4-yl)-8-(pyridin-2-yl)-2-[(2,4,4-trimethyl-1,2,3,4-tetrahydroisoquinolin-7-yl)amino]pyrimido[4,5-d]pyridazin-5(6H)-one]
23 | 7.57 | CN1CCC(n2nc(-c3ccccn3)c3nc(Nc4ccc5c(c4)CNCC5(C)C)ncc3c2=O)CC1 [Example 329, 2-[(4,4-dimethyl-1,2,3,4-tetrahydroisoquinolin-7-yl)amino]-6-(1-methylpiperidin-4-yl)-8-(pyridin-2-yl)pyrimido[4,5-d]pyridazin-5(6H)-one]

— US8796289B2 (AbbVie Inc., priority 2011, dated 2014)
